Measurements reported in US10227357B2, “Compounds and methods for kinase modulation, and indications therefor” (Plexxikon Inc., priority 2012, dated 2019).

Experiments:
c-kit kinase = target: T1, c-kit kinase (Homo sapiens, UniProt P10721); experiment: c-Kit biochemical assay, AlphaScreen, 10 μM ATP; details: c-kit biochemical inhibitory activity; read-out: Biochemical activity (IC50 μM) Kit
T1 construct: The c-kit (or kinase domain thereof) is an active kinase in AlphaScreen; poly-Histidine tag (in-house protein only) (cleaved yes); host or cells: E. coli BL21(DE3)RIL, co-expressed with PTP1B
Procedure, shortened: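 His-tagged c-Kit expressed in E. coli with co-expressed PTP1B (dephosphorylated), tag removed; 0.1 ng per reaction with biotinylated-peptide substrate in 50 mM HEPES pH 7.2, 5 mM MgCl2, 5 mM MnCl2, 5% DMSO, 10 μM ATP, 1 h at room temperature. Phosphorylation detected by AlphaScreen (streptavidin donor, PY20 acceptor beads); IC50 from 8-point 1:3 dilution series.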

c-kit mutant D816V = target: T2, c-kit mutant D816V (Homo sapiens, UniProt P10721, D816V/DEL694-753); experiment: c-Kit mutant D816V biochemical assay, AlphaScreen; details: c-kit D816V biochemical inhibitory activity; read-out: Biochemical activity (IC50 μM) Kit D816V
T2 construct: residues 551-934, kinase insertion domain residues 694-753 deleted; 6x-histidine (N); made in house; host or cells: E. coli Arctic Express (DE3) RIL (Stratagene)
Procedure, shortened: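 Eight-point, threefold compound series incubated 30 min at room temperature with E. coli-produced D816V kinase, 10 μM ATP, Mg2+/Mn2+ HEPES buffer pH 7.2 and 5% DMSO. After EDTA stop, streptavidin and anti-phosphotyrosine (PY20) AlphaScreen beads gave the read-out, and IC50 was fitted from the concentration–signal curve.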

T2 sequence (P10721 with tags, fused parts or gaps DEL694-753/D816V): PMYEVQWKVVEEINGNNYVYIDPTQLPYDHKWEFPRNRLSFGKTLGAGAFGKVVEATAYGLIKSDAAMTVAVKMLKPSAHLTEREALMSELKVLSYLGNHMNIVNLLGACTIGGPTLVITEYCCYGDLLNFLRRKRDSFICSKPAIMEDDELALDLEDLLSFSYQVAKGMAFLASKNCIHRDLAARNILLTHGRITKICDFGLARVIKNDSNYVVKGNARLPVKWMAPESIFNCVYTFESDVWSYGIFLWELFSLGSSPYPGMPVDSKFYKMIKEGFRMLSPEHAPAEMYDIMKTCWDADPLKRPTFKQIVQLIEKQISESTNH
T1 sequence (P10721 26-976): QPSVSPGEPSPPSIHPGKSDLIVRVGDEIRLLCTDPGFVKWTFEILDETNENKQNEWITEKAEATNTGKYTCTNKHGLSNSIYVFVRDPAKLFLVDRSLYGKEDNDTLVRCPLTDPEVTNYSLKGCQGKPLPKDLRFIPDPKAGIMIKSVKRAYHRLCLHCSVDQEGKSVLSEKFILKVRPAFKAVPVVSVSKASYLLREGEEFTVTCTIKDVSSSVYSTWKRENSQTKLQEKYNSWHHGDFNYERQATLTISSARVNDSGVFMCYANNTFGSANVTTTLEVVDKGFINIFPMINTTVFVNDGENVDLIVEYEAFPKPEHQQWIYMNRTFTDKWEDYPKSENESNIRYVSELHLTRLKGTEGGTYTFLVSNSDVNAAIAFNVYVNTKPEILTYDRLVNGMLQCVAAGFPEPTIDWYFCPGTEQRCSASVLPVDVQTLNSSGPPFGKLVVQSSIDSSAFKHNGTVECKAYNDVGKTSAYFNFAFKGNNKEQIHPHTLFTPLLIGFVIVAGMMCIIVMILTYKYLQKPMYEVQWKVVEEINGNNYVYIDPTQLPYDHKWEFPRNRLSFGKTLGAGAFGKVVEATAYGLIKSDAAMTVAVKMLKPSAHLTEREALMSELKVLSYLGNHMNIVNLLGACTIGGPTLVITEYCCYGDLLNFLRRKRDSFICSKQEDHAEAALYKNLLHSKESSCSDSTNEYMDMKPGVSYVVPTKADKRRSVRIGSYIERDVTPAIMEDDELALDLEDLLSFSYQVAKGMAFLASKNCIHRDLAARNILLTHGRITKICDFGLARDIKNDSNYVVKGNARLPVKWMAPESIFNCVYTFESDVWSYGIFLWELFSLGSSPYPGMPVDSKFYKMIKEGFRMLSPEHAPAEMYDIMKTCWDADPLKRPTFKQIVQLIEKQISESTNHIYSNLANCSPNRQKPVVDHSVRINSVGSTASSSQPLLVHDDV

SMILES | IC50 (c-kit kinase) [µM] | IC50 (c-kit mutant D816V) [µM]
Cc1cc2c(-c3cccc(NS(C)(=O)=O)c3)ncnc2[nH]1 [P-0320, N-[3-(6-methyl-7H-pyrrolo[2,3-d]pyrimidin-4-yl)phenyl]methanesulfonamide] | 10 to 200 | 10 to 200
Cc1cc2c(-c3ccc(NS(=O)(=O)c4ccc(OC(F)F)cc4)cc3F)ncnc2[nH]1 [P-0366, 4-(difluoromethoxy)-N-[3-fluoro-4-(6-methyl-7H-pyrrolo[2,3-d]pyrimidin-4-yl)phenyl]benzenesulfonamide] | 1 to 10 | 1 to 10
Cc1ccc2sc(S(=O)(=O)NC3CCN(c4ncnc5[nH]c(-c6cnn(C)c6)cc45)CC3)cc2c1 [P-0455, 5-methyl-N-[1-[6-(1-methylpyrazol-4-yl)-7H-pyrrolo[2,3-d]pyrimidin-4-yl]-4-piperidyl]benzothiophene-2-sulfonamide] | 1 to 10 | 0.0001 to 1
COc1cc2c(-c3ccc(NS(C)(=O)=O)cc3F)ncnc2cc1OCCCN1CCCCC1 [P-0258, N-[3-fluoro-4-[6-methoxy-7-[3-(1-piperidyl)propoxy]quinazolin-4-yl]phenyl]methanesulfonamide] | 1 to 10 | 0.0001 to 1
Cc1csc(S(=O)(=O)Nc2ccc(-c3ncnc4[nH]c(C)cc34)cc2)c1 [P-0305, 4-methyl-N-[4-(6-methyl-7H-pyrrolo[2,3-d]pyrimidin-4-yl)phenyl]thiophene-2-sulfonamide] | 0.0001 to 1 | 1 to 10
C[C@@H]1CN(c2ncnc3cc(-c4ccc(F)cc4)sc23)CCN1C(=O)NCc1ccc(F)cc1 [P-0602, (2R)-N-[(4-fluorophenyl)methyl]-4-[6-(4-fluorophenyl)thieno[3,2-d]pyrimidin-4-yl]-2-methyl-piperazine-1-carboxamide] | 10 to 200 | 0.0001 to 1
C[C@H](NC(=O)N1CCN(c2ncnc3[nH]c(-c4cnn(C)c4)cc23)C[C@H]1C)c1ccc(F)cc1 [P-0725, (2R)-N-[(1S)-1-(4-fluorophenyl)ethyl]-2-methyl-4-[6-(1-methylpyrazol-4-yl)-7H-pyrrolo[2,3-d]pyrimidin-4-yl]piperazine-1-carboxamide] | 0.0001 to 1 | 0.0001 to 1
CCS(=O)(=O)Nc1ccc(-c2ncnc3[nH]c(-c4ccc(F)cc4)cc23)c(F)c1 [P-0381, N-[3-fluoro-4-[6-(4-fluorophenyl)-7H-pyrrolo[2,3-d]pyrimidin-4-yl]phenyl]ethanesulfonamide] | 0.0001 to 1 | 0.0001 to 1
CCc1ccc(S(=O)(=O)Nc2ccc(-c3ncnc4[nH]c(C)cc34)c(F)c2)cc1 [P-0292, 4-ethyl-N-[3-fluoro-4-(6-methyl-7H-pyrrolo[2,3-d]pyrimidin-4-yl)phenyl]benzenesulfonamide] | 1 to 10 | 0.0001 to 1
C[C@H](NC(=O)N1CCN(c2ncnc3[nH]c(-c4ccc(F)cc4)cc23)CC1)c1cccc2ccccc12 [P-0155, 4-[6-(4-fluorophenyl)-7H-pyrrolo[2,3-d]pyrimidin-4-yl]-N-[(1S)-1-(1-naphthyl)ethyl]piperazine-1-carboxamide] | 1 to 10 | 0.0001 to 1
O=C(NCc1cccs1)N1CCN(c2ncnc3cc(-c4ccc(F)cc4)sc23)CC1 [P-0709, 4-[6-(4-fluorophenyl)thieno[3,2-d]pyrimidin-4-yl]-N-(2-thienylmethyl)piperazine-1-carboxamide] | 10 to 200 | 0.0001 to 1
C[C@H](NC(=O)N1CCN(c2ncnc3cc(-c4ccc(F)cc4)sc23)C[C@H]1C)c1cccc(OC(F)F)c1 [P-0586, (2R)-N-[(1S)-1-[3-(difluoromethoxy)phenyl]ethyl]-4-[6-(4-fluorophenyl)thieno[3,2-d]pyrimidin-4-yl]-2-methyl-piperazine-1-carboxamide] | 1 to 10 | 0.0001 to 1
O=C(Nc1cccc(C(F)(F)F)c1)N1CCN(c2ncnc3[nH]ccc23)CC1 [P-0167, 4-(7H-pyrrolo[2,3-d]pyrimidin-4-yl)-N-[3-(trifluoromethyl)phenyl]piperazine-1-carboxamide] | 10 to 200 | 10 to 200
O=C(NC1CCCC1)N1CCN(c2ncnc3[nH]ccc23)CC1 [P-0177, N-cyclopentyl-4-(7H-pyrrolo[2,3-d]pyrimidin-4-yl)piperazine-1-carboxamide] | 10 to 200 | 0.0001 to 1
CCc1ccc(S(=O)(=O)Nc2ccc(-c3ncnc4[nH]nc(C)c34)cc2)cc1 [P-0442, 4-ethyl-N-[4-(3-methyl-1H-pyrazolo[3,4-d]pyrimidin-4-yl)phenyl]benzenesulfonamide] | 1 to 10 | 0.0001 to 1
COc1ccc(S(=O)(=O)NC2CCN(c3ncnc4[nH]ccc34)CC2)cc1 [P-0540, 4-methoxy-N-[1-(7H-pyrrolo[2,3-d]pyrimidin-4-yl)-4-piperidyl]benzenesulfonamide] | 10 to 200 | 10 to 200

SMILES | IC50 (c-kit kinase) [µM] | IC50 (c-kit mutant D816V) [µM]
CCc1ccc(S(=O)(=O)NC2CCN(c3ncnc4[nH]c(C)cc34)CC2)cc1 [P-0674, 4-ethyl-N-[1-(6-methyl-7H-pyrrolo[2,3-d]pyrimidin-4-yl)-4-piperidyl]benzenesulfonamide] | 10 to 200 | 1 to 10
O=S(=O)(Nc1ccc(-c2ncnc3[nH]c(-c4ccc(F)cc4)cc23)c(F)c1)c1ccc(Cl)cc1 [P-0396, 4-chloro-N-[3-fluoro-4-[6-(4-fluorophenyl)-7H-pyrrolo[2,3-d]pyrimidin-4-yl]phenyl]benzenesulfonamide] | 10 to 200 | 0.0001 to 1
O=S(=O)(NC1CCN(c2ncnc3[nH]ccc23)CC1)c1cc(F)ccc1F [P-0539, 2,5-difluoro-N-[1-(7H-pyrrolo[2,3-d]pyrimidin-4-yl)-4-piperidyl]benzenesulfonamide] | 10 to 200 | 10 to 200
O=C(Nc1ccccc1Cl)N1CCN(c2ncnc3[nH]c(-c4ccccc4)cc23)CC1 [P-0237, N-(2-chlorophenyl)-4-(6-phenyl-7H-pyrrolo[2,3-d]pyrimidin-4-yl)piperazine-1-carboxamide] | 0.0001 to 1 | 1 to 10
Cn1cc(-c2cc3ncnc(C4=CC(C)(C)NC(C)(C)C4)c3s2)cn1 [P-0617, 6-(1-methylpyrazol-4-yl)-4-(2,2,6,6-tetramethyl-1,3-dihydropyridin-4-yl)thieno[3,2-d]pyrimidine] | 10 to 200 | 10 to 200
Cc1ccc(S(=O)(=O)Nc2ccc(-c3ncnc4cc(C5CCNCC5)sc34)cc2)cc1 [P-0592, 4-methyl-N-[4-[6-(4-piperidyl)thieno[3,2-d]pyrimidin-4-yl]phenyl]benzenesulfonamide] | 10 to 200 | 0.0001 to 1
O=S(=O)(Nc1ccc(-c2cc3c(-c4ccc(NS(=O)(=O)C5CC5)cc4F)ncnc3[nH]2)c(F)c1)C1CC1 [P-0387, N-[4-[4-[4-(cyclopropylsulfonylamino)-2-fluoro-phenyl]-7H-pyrrolo[2,3-d]pyrimidin-6-yl]-3-fluoro-phenyl]cyclopropanesulfonamide] | 1 to 10 | 0.0001 to 1
COc1ccc(NC(=O)NC2CCN(c3ncnc4[nH]ccc34)CC2)cc1 [P-0543, 1-(4-methoxyphenyl)-3-[1-(7H-pyrrolo[2,3-d]pyrimidin-4-yl)-4-piperidyl]urea] | 10 to 200 | 10 to 200
COc1cc(-c2cc3c(N4CCN(C(=O)N[C@@H](C)c5ccc(F)cc5)[C@H](C)C4)ncnc3[nH]2)ccn1 [P-0695, (2R)-N-[(1S)-1-(4-fluorophenyl)ethyl]-4-[6-(2-methoxy-4-pyridyl)-7H-pyrrolo[2,3-d]pyrimidin-4-yl]-2-methyl-piperazine-1-carboxamide] | 10 to 200 | 0.0001 to 1
O=C(NCc1ccc(F)cc1)N1CCN(c2ncnc3cc(C4CCN(C(=O)C5CC5)CC4)sc23)CC1 [P-0588, 4-[6-[1-(cyclopropanecarbonyl)-4-piperidyl]thieno[3,2-d]pyrimidin-4-yl]-N-[(4-fluorophenyl)methyl]piperazine-1-carboxamide] | 10 to 200 | 0.0001 to 1
Cc1nc(C)c(-c2cc3c(N4CCC(NS(=O)(=O)c5ccc(OC(F)(F)F)cc5)CC4)ncnc3[nH]2)s1 [P-0664, N-[1-[6-(2,4-dimethylthiazol-5-yl)-7H-pyrrolo[2,3-d]pyrimidin-4-yl]-4-piperidyl]-4-(trifluoromethoxy)benzenesulfonamide] | 1 to 10 | 0.0001 to 1
O=C(NCc1ccc(F)cc1)N1CCN(c2ncnc3[nH]c(-c4ccccc4)cc23)CC1 [P-0242, N-[(4-fluorophenyl)methyl]-4-(6-phenyl-7H-pyrrolo[2,3-d]pyrimidin-4-yl)piperazine-1-carboxamide] | 0.0001 to 1 | 1 to 10
O=C(N1CC=C(c2cc3ncnc(-c4ccc(NS(=O)(=O)C5CC5)cc4)c3s2)CC1)N1CCOCC1 [P-0554, N-[4-[6-[1-(morpholine-4-carbonyl)-3,6-dihydro-2H-pyridin-4-yl]thieno[3,2-d]pyrimidin-4-yl]phenyl]cyclopropanesulfonamide] | 0.0001 to 1 | 0.0001 to 1
Cc1n[nH]c2ncnc(-c3ccc(NS(=O)(=O)c4ccc(F)cc4)cc3)c12 [P-0439, 4-fluoro-N-[4-(3-methyl-1H-pyrazolo[3,4-d]pyrimidin-4-yl)phenyl]benzenesulfonamide] | 1 to 10 | 0.0001 to 1
Cc1cc2c(-c3ccc(NS(=O)(=O)c4cc(Cl)cs4)cc3)ncnc2[nH]1 [P-0304, 4-chloro-N-[4-(6-methyl-7H-pyrrolo[2,3-d]pyrimidin-4-yl)phenyl]thiophene-2-sulfonamide] | 0.0001 to 1 | 1 to 10
